From patent US11160766B2, “Peritoneal therapeutic fluid” (OPTERION Health AG, priority 2015, dated 2021)
Values joined by “and” are separate entries in the source; they are usually repeats but may differ in a detail not shown here. Equal entries are not always repeated.

How the values were obtained:
[1] = test system: Human peritoneal mesothelial cells (HPMC); test: resazurin cell viability assay on HPMC exposed to PD solutions; format: cell-based; conditions: for type of dialysis solution mainly improved: summary of example 4; for effect on cell viability in control medium: Medium control without cytotoxic stress, until Cmax (500 μM); for effect reducing cyto-toxicity of all three tested peritoneal dialysis solutions: Example 2 conclusion, PD solutions #1 to #3; for improvement of viability of HPMC cells (resazurin to resorufin conversion): Example 3, added 5 minutes in advance, triplicate; for cell viability on Glucose based and on Icodextrin based PD-Solutions: summary of examples 1 to 4
Procedure: (§1) Human peritoneal mesothelial cells (HPMC) were purchased from Zen Bio Inc. and cultured in cell culture flasks using suppliers media. Near confluent HPMC were harvested by trypsinization, seeded into collagen-coated 96-well tissue culture plates (Corning) and allowed to adhere overnight. The medium was changed to twice diluted with dialysis solution for 48 up to 72 hours.
Cell viability was established applying the promega resazurin assay, following the suppliers protocol. Living cells are metabolically active and are able to reduce the non-fluorescent dye resazurin to the strongly-fluorescent dye resorufin. The fluorescence output is proportional to the number of viable cells over a wide concentration range. This also allows the calculation of the proliferation rate for cells capable of consecutive cell division. […] For the dose-response relationship, relative viability was plotted against the test item concentrations.
All assays were conducted in a duplex format using the same cell culture.
Addition of selected BCAs of this invention partially reestablished reszurin to reorufin conversion, which is interpreted as a result of a decreased cytotoxicity, due to the application of the tested BCAs. Compounds were added at 9 dilutions (Cmax=500 μM) together with tested PD solutions or Medium control. Incubation was 48 hours.
Addition of selected BCA resveratrol partially reestablished resazurin to reorufin conversion, in a triplicate assay, which is interpreted as a result of a decreased cytotoxicity, due to the application of the tested BCA. In this series, Resveratrol was added 5 minutes in advance to application of test-solutions, at 9 dilutions (Cmax=500 μM). Incubation was 72 hours.
partially reestablished resazurin to reorufin conversion, or partly re-established intracellular ATP-level, which is interpreted as a result of a decreased cytotoxicity, due to the application of the tested BCA. Test items were tested at 3 replicates per concentration. All assays were conducted in a duplex format using the same cell culture. Incubation was 72 hours.

[2] = test system: VEGF; test: peritoneal tissue VEGF (ELISA) in rats after chronic peritoneal dialysis; format: in vivo, Sprague-Dawley rats; conditions: for VEGF concentration (pg/mL) in prot. prep., single animals: peritoneal tissue
Procedure: Animal Studies have been carried out as described in Lee et al. 2012: Peritoneal access ports were inserted in male Sprague-Dawley rats. After one week, rats started to received peritoneal treatment: 10 rats receive once daily 20 ml of Sol #4, 10 rats received 20 ml of Sol #4 with addition of selected BCA (resveratrol), during 2 hour infusions. After 2 to 4 weeks, the abdomen was opened, the peritoneum was recovered and submitted to protein extraction. Tissue VEGF concentration was established by ELISA (Abcam Rat VEGF ELISA Kit, ab100787) on obtained protein preparations (pg/ml).

[3] = concentration (solubility) after stirring at room temperature; format: physicochemical
Procedure: Concentrations of BCA in the present invention are preferably measured after 1 hour stirring at room temperature (which is preferably 20-23° C., more preferably 22° C.), particularly if the BCA is a polyphenolic compound, a metabolite of a polyphenolic compound which is obtained by metabolization in the human or animal body, a salt of a polyphenolic compound, a glycoside of a polyphenolic compound, or derivative of these compounds. So, concentrations of said compound correspond to measured solubility after 1 hour stirring at room temperature. Concentration is measured in a PTF of the invention. So, BCA can be dissolved in water. Other ingredients of a PTF, which are mentioned in this description, are preferably present. If not specifically indicated, or if not specifically indicated otherwise, the time of stirring is one hour. In some cases, other stirring times are indicated, such as 12 hours.

[4] = test system: Human peritoneal mesothelial cells (HPMC); test: CTG assay, intra-cellular ATP level in HPMC exposed to PD solution; format: cell-based; conditions: Example 4; PD-Solution #4; 72 hours
Procedure: as §1
In the case of Piceid, the intra-cellular ATP level was determined with the CTG assay. For this, media was completely removed from all wells by aspiration, 60 μl of CTG reagent was added to each well, and incubated for 5 min at RT while softly shaking (50 rpm). Using a Victor3 1420 Multilabel Counter, the emitted luminescence produced in the CTG assay was measured. For the dose-response relationship, absolute luminescence (background subtracted) was related to the negative (medium) control and relative viability values were plotted against the test item concentrations. For the dose-response relationship, absolute luminescence (background subtracted) was related to the negative (medium) control and relative viability values in presence of BCA were plotted against the BCA concentrations.
partially reestablished resazurin to reorufin conversion, or partly re-established intracellular ATP-level, which is interpreted as a result of a decreased cytotoxicity, due to the application of the tested BCA. […]

[5] = Example 4, PD-Solution #3, 72 hours, 3 replicates per concentration
[6] = Example 4, PD-Solution #4, 72 hours, 3 replicates per concentration
[7] = Example 2, PD-Solution #1, 48 hours, 9 dilutions, Cmax=500 μM
[8] = Example 2, PD-Solution #2, 48 hours, 9 dilutions, Cmax=500 μM

O=C(O)/C=C/c1ccc(O)c(O)c1 [Cafeic Acid, caffeic acid]
improvement of cell viability of HPMC cells (resazurin to resorufin conversion) [1, 5]: up to 32% | improvement of cell viability of HPMC cells (resazurin to resorufin conversion) [1, 6]: minor | type of dialysis solution mainly improved [1]: mainly improved Icodextrin based dialysis solutions

Oc1ccc(/C=C/c2cc(O)cc(O)c2)cc1 [Resveratrol, trans-3,5,4′-trihydroxystilbene]
effect on cell viability in control medium ([1]; Example 2, 48 hours): no significant effect | improvement of cell viability of HPMC cells (resazurin to resorufin conversion) [1, 7]: up to 20% | improvement of cell viability of HPMC cells (resazurin to resorufin conversion) [1, 8]: up to 40% | improvement of cell viability of HPMC cells (resazurin to resorufin conversion) ([1]; Example 2, PD-Solution #3, 48 hours, 9 dilutions, Cmax=500 μM): up to 40% | effect reducing cyto-toxicity of all three tested peritoneal dialysis solutions ([1]; 48 hours): strong effect | improvement of viability of HPMC cells (resazurin to resorufin conversion) ([1]; PD-Solution #1, 72 hours, Cmax=500 μM): up to 84% | improvement of viability of HPMC cells (resazurin to resorufin conversion) ([1]; PD-Solution #2, 72 hours, Cmax=500 μM): up to 28% | improvement of viability of HPMC cells (resazurin to resorufin conversion) ([1]; PD-Solution #3, 72 hours, Cmax=500 μM): up to 105% | cell viability on Glucose based and on Icodextrin based PD-Solutions [1]: increased cell viability | VEGF concentration (pg/mL) in prot. prep., Average ([2]; Sol #4 + 40 μM Resveratrol, 2 and 4 weeks combined, 10 rats): 60.94 pg/mL | VEGF concentration (pg/mL) in prot. prep., single animals ([2]; Sol #4 + 40 μM Resveratrol, 2 weeks treatment): 50.21 pg/mL and 39.99 pg/mL and 70.88 pg/mL and 77.84 pg/mL and 60.12 pg/mL | VEGF concentration (pg/mL) in prot. prep., single animals ([2]; Sol #4 + 40 μM Resveratrol, 4 weeks treatment): 62.02 pg/mL and 63.71 pg/mL and 57.91 pg/mL and 68.45 pg/mL and 58.23 pg/mL | expression of VEGF in the peritoneum of standard PDF treated rats ([2]; addition to Sol #4, 2 to 4 weeks peritoneal dialysis): decreases expression of VEGF | concentration after 12 hours stirring [3]: above 24 mg/L

COc1cc(/C=C/c2ccc(O)cc2)cc(OC)c1 [Pterostilbene]
improvement of cell viability of HPMC cells (resazurin to resorufin conversion) [1, 5]: 183% | improvement of cell viability of HPMC cells (resazurin to resorufin conversion) [1, 6]: 118%

Oc1cc(O)c2cc(O)c(-c3cc(O)c(O)c(O)c3)[o+]c2c1 [Delphinidin]
improvement of cell viability of HPMC cells (resazurin to resorufin conversion) [1, 5]: up to 57%

OC[C@H]1O[C@@H](Oc2cc(O)cc(/C=C/c3ccc(O)cc3)c2)[C@H](O)[C@@H](O)[C@@H]1O [Piceid, resveratrol-3-O-β-mono-D-glucoside]
effect on cell viability in control medium ([1]; Example 2, 48 hours): no significant effect | improvement of cell viability of HPMC cells (resazurin to resorufin conversion) [1, 7]: minor improvements | improvement of cell viability of HPMC cells (resazurin to resorufin conversion) [1, 8]: minor improvements | effect reducing cyto-toxicity of all three tested peritoneal dialysis solutions ([1]; 48 hours): minor effect | improvement of cell viability of HPMC cells (resazurin to resorufin conversion) [1, 5]: up to 32% | improvement of cell viability of HPMC cells (resazurin to resorufin conversion) [1, 6]: up to 17% | cell viability on Glucose based and on Icodextrin based PD-Solutions [1]: increased cell viability | improvement of viability of HPMC cells measured by ATP-level re-establishment [4]: 51%

O=c1cc(-c2ccc(O)c(O)c2)oc2cc(O)cc(O)c12 [Luteolin]
improvement of cell viability of HPMC cells (resazurin to resorufin conversion) [1, 5]: up to 56% | improvement of cell viability of HPMC cells (resazurin to resorufin conversion) [1, 6]: up to 21% | type of dialysis solution mainly improved [1]: mainly improved Icodextrin based dialysis solutions

Oc1cc(O)cc(/C=C/c2ccc(O)c(O)c2)c1 [Piceatannol]
improvement of cell viability of HPMC cells (resazurin to resorufin conversion) [1, 5]: up to 44% | improvement of cell viability of HPMC cells (resazurin to resorufin conversion) [1, 6]: up to 40%
